Assay [1] deals with soybean rust fungus (Phakopsora pachyrhizi). The assay can be described thus: Test on spore germination inhibition against soybean rust fungus. In kind it is cell-based. The following applies: single use, 25° C., 5 hours. On the procedure: Test Example 1: Test on Spore Germination Inhibition Against Soybean Rust Fungus (Phakopsora pachyrhizi)
A spore suspension of soybean rust fungus was added to an aqueous chemical solution prepared so as to contain each test compound in a predetermined concentration and the whole was kept in a moist chamber at 25° C. for 5 hours. Thereafter, the presence of spore germination was investigated using a microscope, the spore germination rate was determined, and the spore germination inhibition rate was determined according to the following calculation formula. Spore germination inhibition rate=(1−a/b)×100 • a: spore germination rate in treated section, b: spore germination rate in untreated section Colby's formula=(X+Y)−XY/100 • X: spore germination inhibition rate in single use of ingredient (a) • Y: spore germination inhibition rate in single use of ingredient (b)
Based on the obtained spore germination inhibition rate, the theoretical value (spore germination inhibition rate) was calculated using the Colby's formula. The theoretical value according to the Colby's formula was shown in brackets ( ) in Tables 1 to 6.
In the case where the experimental value is higher than the theoretical value, the composition of the present invention has a synergistic effect on soybean rust fungus.

Another assay concerns Rhizoctonia solani. Put plainly: Test on mycelial growth inhibition effect against soybean Rhizoctonia rot. In kind it is cell-based. Conditions: single use, PSA, 20° C., 2 days. On the procedure: Test Example 2: Test on Mycelial Growth Inhibition Effect Against Soybean Rhizoctonia Rot (Rhizoctonia solani)
A colony (4 mmϕ) obtained by preculture was inoculated to PSA containing a chemical agent of a predetermined concentration and, after culture at a room temperature of 20° C. for 2 days, the diameter of the grown colony was measured to determine a mycelial growth inhibition rate. Mycelial growth inhibition rate=(1−A/B)×100 • A: diameter of colony in treated section, B: diameter of colony in untreated section Colby's formula=(X+Y)−XY/100 • X: mycelial growth inhibition rate in single use of ingredient (a) • Y: mycelial growth inhibition rate in single use of ingredient (b)
Based on the obtained experimental value of the mycelial growth inhibition rate, the theoretical value of the mycelial growth inhibition rate was calculated using the Colby's formula. The theoretical value according to the Colby's formula was shown in brackets ( ) in Tables 7 to 11.
In the case where the experimental value is higher than the theoretical value, the composition of the present invention has a synergistic effect on Rhizoctonia solani.

Where [2] appears, read: Phakopsora pachyrhizi, 0.1 ppm, read-out: Spore germination inhibition rate.
The mark [3] stands for this setting: Rhizoctonia solani, 48 h, read-out: Mycelial growth inhibition rate.
The mark [4] stands for this setting: Rhizoctonia solani, 48 h, 0.1 ppm, read-out: Mycelial growth inhibition rate.
The mark [5] stands for this setting: Rhizoctonia solani, 48 h, 1 ppm, read-out: Mycelial growth inhibition rate.
[6] abbreviates: Phakopsora pachyrhizi, read-out: Spore germination inhibition rate.

What is called inhibition is the change of the read-out against control, counted positive when it falls.

Take `O=[N+]([O-])c1cc(C(F)(F)F)c(Cl)c([N+](=O)[O-])c1Nc1ncc(C(F)(F)F)cc1Cl` [Fluazinam, fluazinam]: the inhibition at 0.1 ppm was determined as 27% in assay [1] (setting [2]) and 73% with Rhizoctonia solani (setting [4]). Further, the inhibition at 1 ppm in assay [1] (Phakopsora pachyrhizi, 1 ppm, read-out: Spore germination inhibition rate) worked out at 71%; in the assay with Rhizoctonia solani (setting [5]), 88%. In addition, in the assay on Rhizoctonia solani (Rhizoctonia solani, 48 h, 0.001 ppm, read-out: Mycelial growth inhibition rate), the inhibition at 0.001 ppm is 2%. Moreover, in the assay on Rhizoctonia solani (setting [3]), the inhibition at 0.01 ppm came out at 14%. Further, the “Mycelial growth inhibition rate” value is listed as 78% in the assay on Rhizoctonia solani (0.1 ppm) and 92% with Rhizoctonia solani (1 ppm).
As for `Cn1cc(C(=O)Nc2ccccc2-c2cc(F)c(F)c(F)c2)c(C(F)F)n1` [Fluxapyroxad, fluxapyroxad], the “Spore germination inhibition rate” value in assay [1] (1 ppm) is 41%. In addition, the “Mycelial growth inhibition rate” value with Rhizoctonia solani (0.1 ppm) came out at 42%.
As for `OC(Cc1ccccc1Cl)(Cn1nc[nH]c1=S)C1(Cl)CC1` (stereo not shown) [Prothioconazole, prothioconazole], the inhibition at 0.01 ppm in assay [1] (setting [6]) stood at 37%. Also, in assay [1] (setting [2]), the inhibition at 0.1 ppm is 89%.
For `CC(C1CC1)C(O)(Cn1cncn1)c1ccc(Cl)cc1` (stereo not shown) [Cyproconazole, cyproconazole], the inhibition at 0.1 ppm came out at 9% in assay [1] (setting [2]) and 34% in the assay with Rhizoctonia solani (setting [4]). In the assay with Rhizoctonia solani (setting [3]), the inhibition at 0.01 ppm came out at 7%. Besides, the inhibition at 1 ppm in the assay on Rhizoctonia solani (setting [5]) is 80%.
Take `Cn1cc(C(=O)Nc2cccc3c2[C@@H]2CC[C@H]3C2=C(Cl)Cl)c(C(F)F)n1` (racemic) [Benzovindiflupyr, benzovindiflupyr]: the “Spore germination inhibition rate” value in assay [1] (0.1 ppm) came out at 45%; in assay [1] (1 ppm), 52%. For the same compound, the “Mycelial growth inhibition rate” value with Rhizoctonia solani (0.1 ppm) was found to be 71%.
Regarding `CC(C)(C)C(O)(CCc1ccc(Cl)cc1)Cn1cncn1` (stereo not shown) [Tebuconazole, tebuconazole], the values for the inhibition at 0.01 ppm (in assay [1] (setting [6]); in the assay on Rhizoctonia solani (setting [3])) were 12% and 17%, respectively. For the same compound, the inhibition at 0.1 ppm in assay [1] (setting [2]) turned out to be 88%; with Rhizoctonia solani (setting [4]), 31%. For the same compound, in the assay with Rhizoctonia solani (setting [5]), the inhibition at 1 ppm stood at 70%.
Consider `Fc1ccc([C@]2(Cn3cncn3)O[C@H]2c2ccccc2Cl)cc1` (racemic) [Epoxiconazole, epoxiconazole], for which, in assay [1] (setting [6]), the inhibition at 0.01 ppm turned out to be 1%. Moreover, the inhibition at 0.1 ppm was 5% in assay [1] (setting [2]) and 39% in the assay with Rhizoctonia solani (setting [4]). Besides, in the assay with Rhizoctonia solani (setting [5]), the inhibition at 1 ppm was 83%.
